Assays:
[1] = molecular target: T1, Recombinant mTOR (FRAP1) (Homo sapiens, UniProt P42345); test: mTOR in vitro kinase assay (TR-FRET, phosphorylation of GFP-4E-BP1); assay type: biochemical; details: for inhibition at 1 µM: 1 uM compound, read-out: mTOR % Inhib@1 uM; for IC50: 8 μM ATP, 400 nM GFP-4E-BP1
T1 construct: purchased Invitrogen
Procedure: Compounds were evaluated for mTOR activity using an in vitro kinase assay.
mTOR activity is measured in vitro by determining the level of phosphorylation of the protein substrate 4EBP-1. The phosphorylation of GFP-4E-BP1 at threonine residue is recognized by Ab Tb-Anti-p4EBP1, which results in time resolved fluorescence energy transfer (TR-FRET) between GFP and Terbium in the Ab-Protein complex.
Recombinant mTOR (FRAP1), Kinase reaction buffer, GFP-4E-BP1 and LanthaScreen Tb-anti-4E-BP1 (pThr46), TR FRET dilution buffer, Kinase Quench Buffer were obtained from Invitrogen.
Kinase reactions were performed in 10 μl volume in Corning white 384 well plates. […] The reaction was initiated by the addition of substrate (GFP-4E-BP1) and ATP at a final conc. of 400 nM and 8 μM ATP in the reaction respectively. The kinase reaction was allowed to proceed for 1 hour at room temperature before a 10 μL preparation of kinase quench buffer and Tb-labeled Antibody in TR-FRET dilution buffer was added. The final concentration of the antibody in the assay well is 2 nM and the final concentration of EDTA is 10 mM. The plate was incubated at room temperature for 1 h.
(§1) FRET signal was read in Envision Multilabel Reader with the following filters:
Excitation-330 nm and Emission 486 nm (donor) and 520 nm (acceptor).
TR FRET Ratio (Fluorescence 520 nm/Fluorescence 486 nm) was plotted against the concentration of inhibitor and data was fit to Non Linear Regression curve fit (sigmoidal dose response curve with variable slope-four parameters) using Graph Pad Prism 5.

[2] = molecular target: T2, PI3 Kinase alpha (p110 alpha/p85 alpha) (Homo sapiens, UniProt P42336); test: PI3K TR-FRET assay (Transcreener ADP2); assay type: biochemical; details: for IC50: PI3K alpha, 1 μM ATP, 50 μM PIP2; for inhibition at 1 µM: 1 uM compound, read-out: PI3K % Inhib@1 uM
T2 construct: purchased Invitrogen
T2 sequence (P42336 whole entry): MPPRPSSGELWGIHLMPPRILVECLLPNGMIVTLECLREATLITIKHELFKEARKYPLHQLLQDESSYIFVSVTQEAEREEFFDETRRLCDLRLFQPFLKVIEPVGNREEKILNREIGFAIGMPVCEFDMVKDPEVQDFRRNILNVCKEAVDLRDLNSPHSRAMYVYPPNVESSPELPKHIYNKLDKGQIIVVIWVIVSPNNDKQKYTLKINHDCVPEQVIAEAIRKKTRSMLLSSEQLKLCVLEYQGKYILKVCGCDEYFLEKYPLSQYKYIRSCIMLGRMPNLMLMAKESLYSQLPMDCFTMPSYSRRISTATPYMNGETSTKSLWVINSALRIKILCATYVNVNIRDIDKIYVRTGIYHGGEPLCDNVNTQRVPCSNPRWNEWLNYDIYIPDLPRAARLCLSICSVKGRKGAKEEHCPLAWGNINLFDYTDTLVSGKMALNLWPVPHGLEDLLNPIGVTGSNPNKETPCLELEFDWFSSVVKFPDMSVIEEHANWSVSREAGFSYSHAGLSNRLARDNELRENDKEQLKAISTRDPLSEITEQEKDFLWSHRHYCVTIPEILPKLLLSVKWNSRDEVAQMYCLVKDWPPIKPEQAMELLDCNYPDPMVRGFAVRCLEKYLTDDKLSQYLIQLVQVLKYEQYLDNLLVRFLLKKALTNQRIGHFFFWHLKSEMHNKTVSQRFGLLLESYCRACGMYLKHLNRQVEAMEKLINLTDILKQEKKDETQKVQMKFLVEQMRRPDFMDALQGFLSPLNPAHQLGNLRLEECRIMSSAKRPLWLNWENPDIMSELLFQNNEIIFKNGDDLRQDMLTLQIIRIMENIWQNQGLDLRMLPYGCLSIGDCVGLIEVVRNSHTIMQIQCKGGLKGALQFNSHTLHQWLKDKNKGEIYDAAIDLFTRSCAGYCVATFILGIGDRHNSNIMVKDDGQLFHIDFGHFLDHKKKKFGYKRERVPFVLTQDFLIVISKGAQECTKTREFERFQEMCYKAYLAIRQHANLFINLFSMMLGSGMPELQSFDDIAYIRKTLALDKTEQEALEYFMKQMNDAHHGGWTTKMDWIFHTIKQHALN
T2 sequence (P27986 whole entry partner): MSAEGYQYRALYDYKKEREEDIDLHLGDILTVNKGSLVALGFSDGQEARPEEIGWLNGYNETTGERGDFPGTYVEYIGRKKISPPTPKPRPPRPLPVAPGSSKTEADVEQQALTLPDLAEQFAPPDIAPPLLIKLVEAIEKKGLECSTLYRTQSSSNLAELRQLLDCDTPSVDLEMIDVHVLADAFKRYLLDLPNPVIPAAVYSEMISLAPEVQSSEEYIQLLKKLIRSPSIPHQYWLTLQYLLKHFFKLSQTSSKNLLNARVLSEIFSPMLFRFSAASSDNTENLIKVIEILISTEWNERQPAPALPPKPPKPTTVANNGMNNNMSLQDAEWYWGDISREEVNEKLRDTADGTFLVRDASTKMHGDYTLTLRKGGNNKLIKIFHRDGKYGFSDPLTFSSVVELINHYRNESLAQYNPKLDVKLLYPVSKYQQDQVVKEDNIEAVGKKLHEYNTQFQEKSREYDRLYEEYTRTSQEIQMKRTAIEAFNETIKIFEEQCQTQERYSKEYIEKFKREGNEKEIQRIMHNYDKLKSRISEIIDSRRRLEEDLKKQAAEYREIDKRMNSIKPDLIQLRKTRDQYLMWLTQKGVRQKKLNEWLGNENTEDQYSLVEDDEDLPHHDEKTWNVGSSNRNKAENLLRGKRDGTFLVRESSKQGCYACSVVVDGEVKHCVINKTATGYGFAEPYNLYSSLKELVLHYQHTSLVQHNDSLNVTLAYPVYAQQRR
Procedure: Enzymatic activity of PI3K alpha was measured using Time resolved Fluorescence resonance energy transfer (TR-FRET) assay. This assay utilizes ADP detection as a means to screen inhibitor potency of compounds. The Transcreener ADP2 TR-FRET Red Assay is a competitive immunoassay for ADP with a far-red, TR-FRET readout and it has been used for this purpose. The assay can be used for any enzyme class that produces ADP (Kinases, ATPases). It consists of ADP HiLyte647 Tracer, ADP^2 Antibody-Tb conjugate (800 nM), stop & detect buffer, 5 mM ATP, 5 mM ADP. The ADP HiLyte647 Tracer is bound to an ADP^2 Antibody-Tb conjugate. The excitation of the terbium complex in the UV range results in energy transfer to the tracer and emission at a higher wavelength after a time delay ADP produced by the target enzyme displaces the tracer which causes decrease in TR-FRET.
The reaction buffer used for the assay was 50 mM HEPES, pH 7.4.3 mM MgCl2, 0.05% CHAPS, 50 mM NaCl, 2 mM DTT, 1 mM EGTA. PI3 Kinase alpha (p110 alpha/p85 alpha) and PIP2 Substrate (diC8,) were procured from Invitrogen and Echelon respectively.
Kinase reactions were performed in 10 μl volume in Corning white 384 well plates. […] Reaction was initiated by the addition of substrate (PIP2) and ATP at final conc. of 50 μM and 1 μM ATP in the reaction respectively. Kinase reactions were allowed to proceed for 1 hour at room temperature before a 10 μL preparation of Transcreener ADP detection mix was added. Plate was incubated at room temperature for 1 hr. ADP-ATP standard curves were also prepared.
as §1
Excitation-330 nm and Emission 615 nm (donor) and 665 nm (acceptor). TR FRET Ratio (Fluorescence 665 nm/Fluorescence 615 nm) was converted to amount of product formed using the standard curve generated. Percentage inhibition was calculated and plotted against the concentration of inhibitor and data was fit to Non Linear Regression curve fit (sigmoidal dose response curve with variable slope-four parameters) using Graph pad prism 5 and IC50 was calculated for the compound.

T1 sequence (P42345 1360-2549 limits assumed): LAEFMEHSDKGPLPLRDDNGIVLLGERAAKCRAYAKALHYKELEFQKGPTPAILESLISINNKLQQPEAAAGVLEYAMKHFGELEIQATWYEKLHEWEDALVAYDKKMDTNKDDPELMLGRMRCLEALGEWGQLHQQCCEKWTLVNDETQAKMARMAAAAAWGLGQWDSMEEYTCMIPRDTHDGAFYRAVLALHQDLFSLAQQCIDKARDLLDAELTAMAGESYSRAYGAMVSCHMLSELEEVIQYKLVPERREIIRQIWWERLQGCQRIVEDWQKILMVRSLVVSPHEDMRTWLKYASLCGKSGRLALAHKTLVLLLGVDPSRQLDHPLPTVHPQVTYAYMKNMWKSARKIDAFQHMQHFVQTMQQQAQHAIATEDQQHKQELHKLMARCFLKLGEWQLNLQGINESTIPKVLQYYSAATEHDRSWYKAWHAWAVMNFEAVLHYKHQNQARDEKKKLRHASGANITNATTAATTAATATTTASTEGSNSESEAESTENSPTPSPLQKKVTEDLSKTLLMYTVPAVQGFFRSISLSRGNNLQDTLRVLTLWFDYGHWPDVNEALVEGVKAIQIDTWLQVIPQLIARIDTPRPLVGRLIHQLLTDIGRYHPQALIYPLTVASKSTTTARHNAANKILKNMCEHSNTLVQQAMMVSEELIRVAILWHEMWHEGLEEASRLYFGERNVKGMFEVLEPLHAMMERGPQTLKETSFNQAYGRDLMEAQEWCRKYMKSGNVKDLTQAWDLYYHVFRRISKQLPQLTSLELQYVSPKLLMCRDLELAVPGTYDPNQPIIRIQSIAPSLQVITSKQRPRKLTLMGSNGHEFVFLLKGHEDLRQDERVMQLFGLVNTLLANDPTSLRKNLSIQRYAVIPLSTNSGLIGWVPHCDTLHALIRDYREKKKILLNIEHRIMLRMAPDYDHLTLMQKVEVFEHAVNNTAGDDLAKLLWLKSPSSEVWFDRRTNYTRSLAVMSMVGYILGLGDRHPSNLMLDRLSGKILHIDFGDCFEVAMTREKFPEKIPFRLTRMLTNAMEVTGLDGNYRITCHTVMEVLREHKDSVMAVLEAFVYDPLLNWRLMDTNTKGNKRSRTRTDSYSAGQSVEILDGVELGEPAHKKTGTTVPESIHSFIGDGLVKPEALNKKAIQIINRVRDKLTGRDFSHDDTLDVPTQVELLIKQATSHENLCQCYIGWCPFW

Row | SMILES | inhibition at 1 µM [1] [%] | IC50 [1] [nM] | IC50 [2] [nM] | inhibition at 1 µM [2] [%]
1 | CN(C)C(=O)N1CCC(Oc2nc(-c3cnc(N)s3)nc(N3CCOCC3)n2)CC1 [Compound 10003, 4-(4-(2-aminothiazol-5-yl)-6-morpholino-1,3,5-triazin-2-yloxy)-N,N-dimethylpiperidine-1-carboxamide] | > 50 | < 1000 | < 1000 | –
2 | C[C@@H]1COCCN1c1nc(Oc2ccc(C(=O)N(C)C)cc2)nc(-c2cnc(N)s2)n1 [Compound 10004, (R)-4-(4-(2-aminothiazol-5-yl)-6-(3-methylmorpholino)-1,3,5-triazin-2-yloxy)-N,N-dimethylbenzamide] | < 50 | < 1000 | > 1000 | –
3 | C[C@H]1COCCN1c1nc(Oc2ccc(C(=O)N(C)C)cc2)nc(-c2cnc(N)s2)n1 [Compound 10005, (S)-4-(4-(2-aminothiazol-5-yl)-6-(3-methylmorpholino)-1,3,5-triazin-2-yloxy)-N,N-dimethylbenzamide] | > 50 | < 1000 | < 1000 | –
4 | CC1COCCN1c1nc(Oc2ccc(C(=O)N(C)C)cc2)nc(-c2cnc(N)s2)n1 (stereo not drawn) [Compound 10006, 4-(4-(2-aminothiazol-5-yl)-6-(3-methylmorpholino)-1,3,5-triazin-2-yloxy)-N,N-dimethylbenzamide] | < 50 | – | > 1000 | > 50
5 | CNc1ncc(-c2nc(Oc3ccc(C(=O)N(C)C)cc3)nc(N3CCOCC3)n2)s1 [Compound 10007, N,N-dimethyl-4-(4-(2-(methylamino)thiazol-5-yl)-6-morpholino-1,3,5-triazin-2-yloxy)benzamide] | > 50 | < 1000 | > 1000 | –
6 | C[C@H]1COCCN1c1nc(Oc2ccc(C(=O)N(C)C)cc2F)nc(-c2cnc(N)s2)n1 [Compound 10010, (S)-4-(4-(2-aminothiazol-5-yl)-6-(3-methylmorpholino)-1,3,5-triazin-2-yloxy)-3-fluoro-N,N-dimethylbenzamide] | > 50 | < 1000 | < 1000 | > 50
7 | CN(C)C(=O)c1ccc(Oc2nc(-c3cnc(N)s3)nc(N3[C@@H]4CC[C@H]3COC4)n2)cc1 [Compound 10011, 4-(4-(2-aminothiazol-5-yl)-6-((1R,5S)-3-oxa-8-azabicyclo[3.2.1]octan-8-yl)-1,3,5-triazin-2-yloxy)-N,N-dimethylbenzamide] | > 50 | < 1000 | > 1000 | –
8 | CN(C)C(=O)c1ccc(Oc2nc(-c3cnc(N)cc3C(F)(F)F)nc(N3CCOCC3)n2)cc1 [Compound 10015, 4-(4-(6-amino-4-(trifluoromethyl)pyridin-3-yl)-6-morpholino-1,3,5-triazin-2-yloxy)-N,N-dimethylbenzamide] | > 50 | < 1000 | < 1000 | –
9 | CN(C)C(=O)c1ccc(Oc2nc(-c3cnc(N)s3)nc(N3CCOCC3)n2)cc1 [Compound 10017, 4-(4-(2-aminothiazol-5-yl)-6-morpholino-1,3,5-triazin-2-yloxy)-N,N-dimethylbenzamide] | – | < 1000 | < 1000 | –
10 | C[C@@H]1CN(c2nc(Oc3ccc(C(=O)N(C)C)cc3F)nc(-c3cnc(N)s3)n2)C[C@@H](C)O1 [Compound 10070, 4-((4-2-Aminothiazol-5-yl)-6-((2R,6R)-2,6-dimethylmorpholino)-1,3,5-triazin-2-yl)oxy-3-fluoro-N,N-dimethylbenzamide] | – | < 1000 | – | –
11 | CN(C)C(=O)c1ccc(Oc2nc(-c3cnc(N)s3)nc(N3CCOCC34CCCC4)n2)c(F)c1 [Compound 10083, 4-((4-(2-Aminothiazol-5-yl)-6-(9-oxa-6-azaspiro[4.5]decan-6-yl)-1,3,5-triazin-2-yl)oxy)-3-fluoro-N,N-dimethylbenzamide] | – | – | < 1000 | –
12 | C[C@H]1CN(c2nc(Oc3ccc(C(=O)N(C)C)cc3F)nc(-c3cnc(N)s3)n2)C[C@H](C)O1 [Compound 10084, 4-((4-2-Aminothiazol-5-yl)-6-((2S,6S)-2,6-dimethylmorpholino)-1,3,5-triazin-2-yl)oxy-3-fluoro-N,N-dimethylbenzamide] | – | < 1000 | – | –
13 | C[C@H]1CN(c2nc(Oc3ccc(C(=O)N(C)C)cc3F)nc(-c3cnc(N)s3)n2)[C@@H](C)[C@@H](C)O1 [Compound 10088, 4-((4-(2-Aminothiazol-5-yl)-6-((2R,3S,6S)-2,3,6-trimethylmorpholino)-1,3,5-triazin-2-yl)-oxy)-3-fluoro-N,N-dimethylbenzamide] | < 50 | – | – | –
14 | C[C@H]1COCCN1c1nc(Oc2ccc(C(=O)N(C)C)cc2)nc(-c2cnc(NC(=O)c3cccnc3)s2)n1 [Compound 10094, (S)-N-(5-(4-(4-(dimethylcarbamoyl)phenoxy)-6-(3-methylmorpholino)-1,3,5-triazin-2-yl)thiazol-2-yl)nicotinamide] | – | – | – | < 50
15 | Nc1ccc(-c2nc(SCc3ccccc3)nc(N3CCOCC3)n2)cn1 [Compound 10175, 5-(4-(benzylthio)-6-morpholino-1,3,5-triazin-2-yl)pyridine-2-amine] | – | – | < 1000 | –
16 | CN(C)C(=O)c1ccc(Oc2nc(-c3ccc(NN)nc3)nc(N3CCOCC3)n2)cc1 [Compound 10177, 4-((4-(6-hydrazinylpyridin-3-yl)-6-morpholino-1,3,5-triazin-2-yl)oxy)-N,N-dimethylbenzamide] | – | – | < 1000 | –
17 | CN(C)C(=O)c1cccc(Oc2nc(-c3ccc(N)nc3)nc(N3CCOCC3)n2)c1 [Compound 10183, 3-((4-(6-aminopyridin-3-yl)-6-morpholino-1,3,5-triazin-2-yl)oxy)-N,N-dimethylbenzamide] | – | – | < 1000 | –
18 | CN(C)C(=O)Cc1cccc(Oc2nc(-c3ccc(N)nc3)nc(N3CCOCC3)n2)c1 [Compound 10184, 2-(3-((4-(6-aminopyridin-3-yl)-6-morpholino-1,3,5-triazin-2-yl)oxy)phenyl)-N,N-dimethylacetamide] | – | – | < 1000 | –
19 | CN(C)C(=O)N1CCC(Oc2nc(-c3ccc(N)nc3)nc(N3CCOCC3)n2)C1 (stereo not drawn) [Compound 10186, 3-((4-(6-aminopyridin-3-yl)-6-morpholino-1,3,5-triazin-2-yl)oxy)-N,N-dimethylpyrrolidine-1-carboxamide] | – | – | < 1000 | –
20 | CN(C)C(=O)N1CCC(COc2nc(-c3ccc(N)nc3)nc(N3CCOCC3)n2)C1 (stereo not drawn) [Compound 10187, 3-(((4-(6-aminopyridin-3-yl)-6-morpholino-1,3,5-triazin-2-yl)oxy)methyl)-N,N-dimethylpyrrolidine-1-carboxamide] | – | – | < 1000 | –
21 | Nc1ncc(-c2nc(N3CCOCC3)nc(N3CCNC(=O)CC3)n2)s1 [Compound 10198, 1-(4-(2-aminothiazol-5-yl)-6-morpholino-1,3,5-triazin-2-yl)-1,4-diazepan-5-one] | – | – | < 1000 | –
22 | C[C@@H]1CN(c2nc(Oc3ccc(C(=O)N(C)C)cc3F)nc(-c3cnc(N)s3)n2)[C@H](C)CO1 [Compound 10205, 4-((4-(2-aminothiazol-5-yl)-6-((2R,5R)-2,5-dimethylmorpholino)-1,3,5-triazin-2-yl)oxy)-3-fluoro-N,N-dimethylbenzamide] | – | < 1000 | – | –
23 | CN(C)C(=O)c1ccc(Oc2nc(-c3cnc(N)s3)nc(N3CCO[C@@H]4CCC[C@@H]43)n2)c(F)c1 [Compound 10206] | – | < 1000 | – | –
24 | CC1COCCN1c1nc(Oc2ccc(C(=O)N(C)C)cc2F)nc(-c2ccc(N)nc2)n1 (stereo not drawn) [Compound 10207, 4-((4-(6-aminopyridin-3-yl)-6-(3-methylmorpholino)-1,3,5-triazin-2-yl)oxy)-3-fluoro-N,N-dimethylbenzamide] | – | < 1000 | – | –
